Experimental data published in US6420532B1, “Method of obtaining compositions comprising Y2 specific compounds” (Synaptic Pharmaceutical Corporation, priority 1994, dated 2002).

Key:
PYY-preferring receptor = conditions: rat small intestine; cited from earlier work
human Y2 receptor [1] = biological target: T1, human Y2 receptor (Homo sapiens, UniProt P49146); assay: Inhibition of forskolin-stimulated cAMP accumulation (radioimmunoassay), stably transfected 293 cells; format: cell-based; parameters: expressed in transfected cells; conditions: maximum inhibition of cAMP accumulation relative to that produced by human NPY
T1 sequence (P49146 1-381): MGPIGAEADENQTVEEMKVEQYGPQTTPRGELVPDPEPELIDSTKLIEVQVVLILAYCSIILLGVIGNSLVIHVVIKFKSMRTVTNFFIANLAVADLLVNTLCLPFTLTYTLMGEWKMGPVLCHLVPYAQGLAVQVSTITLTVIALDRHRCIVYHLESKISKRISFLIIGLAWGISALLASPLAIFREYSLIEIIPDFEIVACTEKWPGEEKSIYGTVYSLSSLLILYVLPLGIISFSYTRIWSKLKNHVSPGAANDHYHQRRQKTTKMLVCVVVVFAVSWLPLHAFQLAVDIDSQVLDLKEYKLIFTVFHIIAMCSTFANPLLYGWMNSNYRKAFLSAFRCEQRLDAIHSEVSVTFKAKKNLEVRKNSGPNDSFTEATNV

human Y2 receptor [2] = biological target: T1, human Y2 receptor; conditions: stably transfected NIH-3T3 cells

Row | Substance | higher affinity for PYY than for NPY (PYY-preferring receptor) | Function Emax (human Y2 receptor [1]) | decrease of forskolin-stimulated cAMP accumulation (human Y2 receptor [2])
1 | PYY: PYY, species not stated (Table 2, b7) [peptide YY] | 5-10 fold | – | –
2 | Neuropeptide Y [NPY, human] | – | 100% | 50%
